From patent US20060074046A1, “Oral administration of decitabine salt” (priority 2004, published 2006) come the findings set out here.

The nature of data set [1]: Hygroscopicity, weight gain in 1 week at relative humidity. To be noted: solid state. In kind it is physicochemical.
The conditions of data set [2]: 1 min.
The conditions of data set [3]: 0.05 M phosphate buffer; for Potency Found (%) At pH 2.5 / Potency Found (%) At pH 7.0: 0.5 mg/mL, ambient.
Data set [4] is described as follows: physchem. To be noted: water, thermodynamic from solid, Total Solubility.

Structures are written as SMILES. Converted amounts (≈) assume the structure as drawn. Structures can show the parent of a compound that is named as a salt. Where two headings read alike, the source gives them in different places.

The term solubility denotes the concentration that dissolves in the medium under given conditions. `Nc1ncn([C@@H]2O[C@H](CO)[C@@H](O)[C@H]2O)c(=O)n1` [Compound 2, 5-azacytidine, reference compound]: the “Hygroscopicity-% weight gain in 1 week” value stood at 1.74% in data set [1] (56% RH) and 5.61% in data set [1] (98% RH). For the same compound, the “Total Solubility” value in data set [2] was determined as 14 mg/mL. Moreover, the “Potency Found (%) At pH 2.5” value in data set [3] (t = 0.5 hr) was 73.62%. In addition, the “Potency Found (%) At pH 7.0” value in data set [3] (t = 0.5 hr) came out at 86.74%; in data set [3] (t = 24 hr), 79.43%. In data set [4], the solubility at 1 min was found to be 14 mg/mL (≈ 57.3 mM).
As for `Nc1ncn([C@@H]2O[C@H](CO)C(O)C2O)c(=O)n1` (some centres unmarked) [Compound 19, azacitidine mesylate], the figures for the “Hygroscopicity-% weight gain in 1 week” value in data set [1] (56% RH) and in data set [1] (98% RH) were 6.05% and 38.11%, respectively. The “Total Solubility” value in data set [2] came out at 205 mg/mL. Further, the “solution stability compared with the free base” value in data set [3] (pH 7.0 and 2.5) is listed as “slightly less than the free azacitidine base”. In addition, the “Potency Found (%) At pH 2.5” value in data set [3] (t = 0.5 hr) stood at 64.56%; in data set [3] (t = 24 hr) it was 49.94%. The “Potency Found (%) At pH 7.0” value in data set [3] (t = 0.5 hr) was 77.47%; in data set [3] (t = 24 hr), 65.79%. Also, the values for the solubility at 1 min in data set [4] and in data set [4] (decitabine or azacitidine free base equivalents) were 205 mg/mL and 137 mg/mL, respectively.
